Legend:
Type in all cases: in vivo
[1] = system: Botrytis cinerea; test: Test C: preventive spray on tomato seedlings, gray mold, visual disease rating
In short: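 Compounds predissolved in acetone (3% of final volume), then suspended in 50/50 acetone/water with PEG400 surfactant. Sprayed preventively at 250 ppm or other indicated rate to run-off on tomato seedlings before Botrytis challenge; disease rated visually.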

[2] = system: Zymoseptoria tritici; test: Test E: preventive spray on wheat seedlings, wheat leaf blotch, visual disease rating
In short: (§1)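 Preventive foliar spray of wheat seedlings to run-off, at 250 ppm or other indicated rate. Compounds dissolved in acetone (3% of final volume), suspended in 50/50 acetone–water with PEG400 surfactant. Disease rated visually.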

[3] = system: Phytophthora infestans; test: whole plant or invertebrate; conditions: tomato seedlings
[4] = system: Phakopsora pachyrhizi; test: Test A: preventive spray on soybean seedlings, Asian soybean rust, visual disease rating
[5] = system: Plasmopara viticola; test: Test B: preventive spray on grape seedlings, grape downy mildew, disease rating
Excerpt: General protocol for preparing test solutions for Tests AG: the test compounds were first dissolved in acetone in an amount equal to 3% of the final volume and then suspended at the desired concentration (in ppm) in acetone and purified water (50/50 mix by volume) containing the surfactant PEG400 (polyhydric alcohol esters). The resulting test suspensions were then used in Tests AG. Compounds were sprayed at a concentration of 250 ppm or other indicated rate to the point of run-off on the test plants. The test solution was sprayed to the point of run-off on grape seedlings. […] A dash (-) indicates no test results.

[6] = system: Erysiphe graminis f. sp. tritici; test: Test G: preventive spray on wheat seedlings, wheat powdery mildew, visual disease rating
In short: as §1

[7] = system: Puccinia recondita f. sp. tritici; test: Test F: preventive spray on wheat seedlings, wheat leaf rust, visual disease rating
In short: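 Compounds were dissolved in acetone/water (50/50) with PEG400 surfactant and sprayed to run-off on wheat seedlings, at 250 ppm unless another rate is indicated. The next day, seedlings were inoculated with a Puccinia recondita f. sp. tritici spore suspension; disease was rated visually.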

[8] = 250 ppm, 100 = 100% disease control, 0 = no control

Compound | Test C disease control rating [1, 8] | Test E disease control rating [2, 8] | Test D disease control rating [3, 8] | Test A disease control rating [4, 8] | Test B disease control rating [5, 8] | Test G disease control rating [6, 8] | Test F disease control rating [7, 8] | Test C disease control rating ([1]; 50 ppm) | Test E disease control rating ([2]; 50 ppm) | Test D disease control rating ([3]; 50 ppm) | Test A disease control rating ([4]; 50 ppm) | Test B disease control rating ([5]; 50 ppm) | Test G disease control rating ([6]; 50 ppm) | Test F disease control rating ([7]; 50 ppm)
CSc1cnn(C)c(=O)c1C(=O)Nc1ccc(OC(F)(F)F)cc1 [Compound 109] | 0% | 0% | 0% | 0% | 0% | 55% | 0% |  |  |  |  |  |  | 
Cn1ncc([S+](C)[O-])c(C(=O)Nc2ccc(OC(F)(F)F)cc2)c1=O (centres unmarked) [Compound 110] |  |  |  |  |  |  |  | 0% | 88% | 0% | 92% | 0% | 0% | 74%
Cn1ncc(S(C)(=O)=O)c(C(=O)Nc2ccc(OC(F)(F)F)cc2)c1=O [Compound 111] | 0% | 93% | 9% | 98% | 0% | 0% | 96% |  |  |  |  |  |  | 
Cn1ncc([O-])c(C(=O)Nc2ccc(S(F)(F)(F)(F)F)cc2)c1=O.[Na+] [Compound 113] | 0% | 79% | 81% | 73% | 96% | 90% | 94% |  |  |  |  |  |  | 
Cn1ncc(O)c(C(=O)Nc2cnc(Cl)cn2)c1=O [Compound 114] | 0% | 55% | 80% | 39% | 90% | 0% | 95% |  |  |  |  |  |  | 
COc1ccc(Cn2ncc(O)c(C(=O)Nc3ccc(OC(F)(F)F)cc3)c2=O)cc1 [Compound 115] | 0% | 26% | 0% | 0% | 0% | 0% | 68% |  |  |  |  |  |  | 
Cn1ncc(OS(=O)(=O)Cc2ccccc2)c(C(=O)Nc2ccc(OC(F)(F)F)cc2)c1=O [Compound 116] | 0% | 60% | 0% | 25% | 99% | 0% | 97% |  |  |  |  |  |  | 
Cc1cc(C(F)(F)F)ccc1NC(=O)c1c(O)cnn(C)c1=O [Compound 117] | 0% |  | 97% | 0% | 100% | 90% | 99% |  |  |  |  |  |  | 
O=C(Nc1ccc(OC(F)(F)F)cc1)c1c(O)cnn(C2CC2)c1=O [Compound 120] | 0% |  | 97% | 13% | 98% | 89% | 96% |  |  |  |  |  |  | 
COC(=O)c1ccc(NC(=O)c2c(O)cnn(C)c2=O)cc1 [Compound 121] | 0% | 14% | 99% | 0% | 86% | 0% | 80% |  |  |  |  |  |  | 
Cn1ncc(O)c(C(=O)Nc2ccccc2C(F)(F)F)c1=O [Compound 122] | 0% | 96% | 95% | 0% | 98% | 96% | 86% |  |  |  |  |  |  | 
Cn1ncc(O)c(C(=O)Nc2ccc(Cl)cc2F)c1=O [Compound 123] | 63% | 91% | 90% | 81% | 90% | 92% | 100% |  |  |  |  |  |  | 
CONc1cnn(C)c(=O)c1C(=O)Nc1ccc(OC(F)(F)F)cc1 [Compound 127] | 0% | 27% | 0% | 0% | 23% | 0% | 0% |  |  |  |  |  |  | 
CN(C)c1cnn(C)c(=O)c1C(=O)Nc1ccc(C(F)(F)F)cc1F [Compound 128] | 0% |  | 67% | 79% | 100% | 0% | 68% |  |  |  |  |  |  | 
Cn1ncc(O)c(C(=O)Nc2ccc(S(=O)(=O)C(F)(F)F)cc2)c1=O [Compound 129] | 0% |  | 82% | 0% | 98% | 81% | 89% |  |  |  |  |  |  | 
Cn1ncc(OC/C=C/c2ccccc2)c(C(=O)Nc2ccc(OC(F)(F)F)cc2)c1=O [Compound 132] | 0% | 50% | 17% | 0% | 25% | 97% | 91% |  |  |  |  |  |  | 
O=C(Nc1ccc(OC(F)(F)F)cc1)c1c(O)cn[nH]c1=O [Compound 136] | 0% |  | 91% | 0% | 100% | 0% | 93% |  |  |  |  |  |  | 
Cn1ncc(O)c(C(=O)Nc2c(Cl)cccc2Cl)c1=O [Compound 141] | 0% |  |  | 50% | 96% | 64% | 68% |  |  |  |  |  |  | 
Cn1ncc(O)c(C(=O)Nc2ccc(F)cc2F)c1=O [Compound 144] | 0% |  | 99% | 0% | 100% | 87% | 99% |  |  |  |  |  |  | 
Cn1ncc(O)c(C(=O)Nc2cccc(Oc3ccccc3)c2)c1=O [Compound 151] | 0% |  | 0% | 0% | 83% | 13% | 85% |  |  |  |  |  |  | 
N-(4-Bromophenyl)-2,3-dihydro-5-hydroxy-2-methyl-3-oxo-4-pyridazinecarboxamide [Compound 75] | 0% | 83% | 93% |  | 86% | 13% | 98% |  |  |  |  |  |  | 

From patent US20190133128A1, “Fungicidal pyridazinones” (FMC Corporation, priority 2017, published 2019)
